target: G12C K-Ras4B (1-169) (Homo sapiens (Human), UniProt P01116, G12C); assay: Test of compounds on whether to bind to KRASG12C (LC-MS compound binding rate); details: final compound concentration of 2 μM, 1 μM protein, 25° C. for 2 hours
Procedure: Test compounds were prepared in the form of a 10 mM DMSO solution.
K-Ras4B (1-169) and G12C K-Ras4B (1-169) proteins were mixed and diluted with a buffer (1×TBS, 0.1 mM TCEP) to prepare individual 1 μM protein solutions. A 10 mM test compound was diluted tenfold with DMSO to make a 1 mM solution, and then diluted fivefold with DMSO to make a 200 μM solution. The 200 μM solution was further diluted fivefold to make a 40 μM solution. When the final compound concentration was 10 μM, 1 μL of a 200 μM test compound was added to 19 μL of a 1 μM protein solution. When the final compound concentration was 2 μM, 1 μL of a 40 μM test compound was added to 19 μL of a 1 μM protein solution. The mixtures were stored in an incubator at 25° C. for 2 hours, and 80 μL of a 1×TBS solution containing 0.2% formic acid was added thereto to end the reaction, followed by LC-MS measurement. LC-MS measurement was performed using Xevo G2-S Q-Tof manufactured by Waters, and reverse-phase chromatography was performed with a desalting column. A mass spectrum of positive ions was obtained by electrospray. For a mass spectrum, a spectrum of a polyvalent ion was collectively converted to a molecular weight by using OpenLynx software by the MaxEnt technique, and a compound binding rate was obtained from the ratio of a signal intensity that corresponds to the molecular weight of a protein to a signal intensity that corresponds to the molecular weight of a compound binding to the protein.
By obtaining the compound binding rate for K-Ras4B (1-169) and the compound binding rate for G12C K-Ras4B (1-169) at the same time, information of the selectivity for G12C K-Ras4B (1-169) was obtained at the same time.
The test compounds were measured at their final compound concentration of 2 μM. […] Almost no compounds of the present invention binded to K-Ras4B (1-169). The “binding rate” (%) for each of K-Ras4B (1-169) and G12C K-Ras4B (1-169) refers to the ratio of the signal intensity of binded forms to the sum of the signal intensity of non-binded forms and the signal intensity of binded forms.

Structure (SMILES) | binding rate for G12C K-Ras4B (1-169)
C=CC(=O)N1C[C@@H](NC(=O)c2c(C)nc(CNc3n[nH]c4cc(Cl)c(C(C)(C)C)cc34)n2C)[C@H]1C (relative stereo) [Example 52, N-((2R*,3R*)-1-acryloyl-2-methylazetidin-3-yl)-2-(((5-(tert-butyl)-6-chloro-1H-indazol-3-yl)amino)methyl)-1,4-dimethyl-1H-imidazole-5-carboxamide] | B (a binding rate of 60% or more and less than 80% is rated “B,”)
C=CC(=O)N1C[C@@H](NC(=O)c2c(C)nc(CNc3n[nH]c4cc(Cl)c(C(C)(C)C)cc34)n2C)[C@@H]1C (relative stereo) [Example 59, N-(trans-1-acryloyl-2-methylazetidin-3-yl)-2-(((5-(tert-butyl)-6-chloro-1H-indazol-3-yl)amino)methyl)-1,4-dimethyl-1H-imidazole-5-carboxamide] | B (a binding rate of 60% or more and less than 80% is rated “B,”)
C=CC(=O)N1CC(NC(=O)c2cnc(CNc3n[nH]c4cc(Cl)c(C(C)(C)C)cc34)n2C)C1 [Example 1, N-(1-acryloylazetidin-3-yl)-2-(((5-(tert-butyl)-6-chloro-1H-indazol-3-yl)amino)methyl)-1-methyl-1H-imidazole-5-carboxamide] | A (a binding rate of 80% or more is rated “A,”)
C=CC(=O)N1CC(NC(=O)c2sc(CNc3n[nH]c4cc(Cl)c(C(C)(C)C)cc34)nc2C)C1 [Example 2, N-(1-acryloylazetidin-3-yl)-2-(((5-(tert-butyl)-6-chloro-1H-indazol-3-yl)amino)methyl)-4-methylthiazole-5-carboxamide] | B (a binding rate of 60% or more and less than 80% is rated “B,”)
C=CC(=O)N1CC(NC(=O)c2cnc(C(C)Nc3n[nH]c4cc(Cl)c(C(C)(C)C)cc34)n2C)C1 (stereo not drawn) [Example 4, N-(1-acryloylazetidin-3-yl)-2-(1-((5-(tert-butyl)-6-chloro-1H-indazol-3-yl)amino)ethyl)-1-methyl-1H-imidazole-5-carboxamide] | C (a binding rate of 40% or more and less than 60% is rated “C,”)
[2H]C([2H])(Nc1n[nH]c2cc(Cl)c(C(C)(C)C)cc12)c1nc(C)c(C(=O)NC2CN(C(=O)C=C)C2)n1C [Example 5, N-(1-acryloylazetidin-3-yl)-2-(((5-(tert-butyl)-6-chloro-1H-indazol-3-yl)amino)methyl-d2)-1,4-dimethyl-1H-imidazole-5-carboxamide] | A (a binding rate of 80% or more is rated “A,”)
C=CC(=O)N1CC(NC(=O)c2c(Cl)c(CNc3n[nH]c4cc(Cl)c(C(C)(C)C)cc34)nn2C)C1 [Example 6, N-(1-acryloylazetidin-3-yl)-3-(((5-(tert-butyl)-6-chloro-1H-indazol-3-yl)amino)methyl)-4-chloro-1-methyl-1H-pyrazole-5-carboxamide] | B (a binding rate of 60% or more and less than 80% is rated “B,”)
C=CC(=O)N1CC(NC(=O)c2csc(CNc3n[nH]c4cc(Cl)c(C(C)(C)C)cc34)n2)C1 [Example 7, N-(1-acryloylazetidin-3-yl)-2-(((5-(tert-butyl)-6-chloro-1H-indazol-3-yl)amino)methyl)thiazole-4-carboxamide] | D (a binding rate of 20% or more and less than 40% is rated “D,”)
C=CC(=O)N1CC(NC(=O)c2cnc(CNc3n[nH]c4cc(Cl)c(C(C)(C)C)cc34)s2)C1 [Example 8, N-(1-acryloylazetidin-3-yl)-2-(((5-(tert-butyl)-6-chloro-1H-indazol-3-yl)amino)methyl)thiazole-5-carboxamide] | B (a binding rate of 60% or more and less than 80% is rated “B,”)
C=CC(=O)N1CC(NC(=O)c2cc(CNc3n[nH]c4cc(Cl)c(C(C)(C)C)cc34)nn2C)C1 [Example 9, N-(1-acryloylazetidin-3-yl)-3-(((5-(tert-butyl)-6-chloro-1H-indazol-3-yl)amino)methyl)-1-methyl-1H-pyrazole-5-carboxamide] | D (a binding rate of 20% or more and less than 40% is rated “D,”)
C=CC(=O)N1CC(NC(=O)c2c(C)c(CNc3n[nH]c4cc(Cl)c(C(C)(C)C)cc34)nn2C)C1 [Example 10, N-(1-acryloylazetidin-3-yl)-3-(((5-(tert-butyl)-6-chloro-1H-indazol-3-yl)amino)methyl)-1,4-dimethyl-1H-pyrazole-5-carboxamide] | B (a binding rate of 60% or more and less than 80% is rated “B,”)
C=CC(=O)N1CC(NC(=O)c2oc(CNc3n[nH]c4cc(Cl)c(C(C)(C)C)cc34)nc2C)C1 [Example 11, N-(1-acryloylazetidin-3-yl)-2-(((5-(tert-butyl)-6-chloro-1H-indazol-3-yl)amino)methyl)-4-methyloxazole-5-carboxamide] | B (a binding rate of 60% or more and less than 80% is rated “B,”)
C=CC(=O)N1CC(NC(=O)c2c(C)nc(CNc3n[nH]c4cc(Cl)c(C(C)(C)C)cc34)n2CC)C1 [Example 12, N-(1-acryloylazetidin-3-yl)-2-(((5-(tert-butyl)-6-chloro-1H-indazol-3-yl)amino)methyl)-1-ethyl-4-methyl-1H-imidazole-5-carboxamide] | B (a binding rate of 60% or more and less than 80% is rated “B,”)
C=CC(=O)N1CC(NC(=O)c2c(C)nc(CNc3n[nH]c4cc(Cl)c(C(C)(C)C)cc34)n2CCOC)C1 [Example 14, N-(1-acryloylazetidin-3-yl)-2-(((5-(tert-butyl)-6-chloro-1H-indazol-3-yl)amino)methyl)-1-(2-methoxyethyl)-4-methyl-1H-imidazole-5-carboxamide] | B (a binding rate of 60% or more and less than 80% is rated “B,”)
C=CC(=O)N1CC(NC(=O)c2c(C)nc(CNc3n[nH]c4cc(Cl)c(C(C)(C)C)cc34)n2Cc2ccccc2)C1 [Example 15, N-(1-acryloylazetidin-3-yl)-1-benzyl-2-(((5-(tert-butyl)-6-chloro-1H-indazol-3-yl)amino)methyl)-4-methyl-1H-imidazole-5-carboxamide] | A (a binding rate of 80% or more is rated “A,”)
C=CC(=O)N1CC(NC(=O)c2c(C)nc(CNc3n[nH]c4cc(Cl)c(C(C)(C)C)cc34)n2CCN(C)C)C1 [Example 16, N-(1-acryloylazetidin-3-yl)-2-(((5-(tert-butyl)-6-chloro-1H-indazol-3-yl)amino)methyl)-1-(2-(dimethylamino)ethyl)-4-methyl-1H-imidazole-5-carboxamide] | B (a binding rate of 60% or more and less than 80% is rated “B,”)
C=CC(=O)N1CC(NC(=O)c2c(C)nc(CNc3n[nH]c4cc(Cl)c(C(C)(C)C)cc34)n2C2CCCC2)C1 [Example 17, N-(1-acryloylazetidin-3-yl)-2-(((5-(tert-butyl)-6-chloro-1H-indazol-3-yl)amino)methyl)-1-cyclopentyl-4-methyl-1H-imidazole-5-carboxamide] | B (a binding rate of 60% or more and less than 80% is rated “B,”)
C=CC(=O)N1CC(NC(=O)c2c(C)nc(CNc3n[nH]c4cc(Cl)c(C(C)(C)C)cc34)n2CCCC)C1 [Example 18, N-(1-acryloylazetidin-3-yl)-1-butyl 2-(((5-(tert-butyl)-6-chloro-1H-indazol-3-yl)amino)methyl)-4-methyl-1H-imidazole-5-carboxamide] | B (a binding rate of 60% or more and less than 80% is rated “B,”)
C=CC(=O)N1CC(NC(=O)c2c(C)nc(CNc3n[nH]c4cc(Cl)c(C(C)(C)C)cc34)n2CCC)C1 [Example 19, N-(1-acryloylazetidin-3-yl)-2-(((5-(tert-butyl)-6-chloro-1H-indazol-3-yl)amino)methyl)-4-methyl-1-propyl-1H-imidazole-5-carboxamide] | A (a binding rate of 80% or more is rated “A,”)
C=CC(=O)N1CC(NC(=O)c2c(C)nc(CNc3n[nH]c4cc(Cl)c(C(C)(C)C)cc34)n2C(C)CC)C1 (stereo not drawn) [Example 20, N-(1-acryloylazetidin-3-yl)-1-(sec-butyl)-2-(((5-(tert-butyl)-6-chloro-1H-indazol-3-yl)amino)methyl)-4-methyl-1H-imidazole-5-carboxamide] | A (a binding rate of 80% or more is rated “A,”)
C=CC(=O)N1CC(NC(=O)c2c(C)nc(CNc3n[nH]c4cc(Cl)c(C(C)(C)C)cc34)n2C(F)F)C1 [Example 21, N-(1-acryloylazetidin-3-yl)-2-(((5-(tert-butyl)-6-chloro-1H-indazol-3-yl)amino)methyl)-1-(difluoromethyl)-4-methyl-1H-imidazole-5-carboxamide] | B (a binding rate of 60% or more and less than 80% is rated “B,”)
